Laboratory results reported in patent publication US20040204384A1, “Methods for regulating hematopoietic cell differentiation with polymers containing disaccharide units” (Institut National De La Sante Et De La Recherche Medial …, priority 1999, published 2004).
Several values for one entry are separate records, joined by “and”; a condition that tells them apart may be missing. Equal values may be shown once.

Columns and labels:
Format in all cases: cell-based, human
AML blasts [1] = test: Nitroblue tetrazolium (NBT) reduction test
Protocol: (§1) AML blast treatment with HA. Cell suspensions containing more than 95% AML blasts were deposited in triplicate at a rate of 2.105 cells per ml of RPMI 1640/10% FCS in tissue culture plates (Costar Corp., Cambridge, Mass.) with 96 wells each containing 150 μl of medium, and placed in incubation for 5 days in the presence of 20 μg/ml of hyaluronic acid (hHA, HA-6 or HA-12). HA was added at the specified concentrations and chondroitin sulphate was added to the negative controls. The plates were placed in an incubator at 37° C. in a humid atmosphere for […], and the cells underwent the differentiation studies as described below.
Nitroblue tetrazolium (NBT) reduction test: The ability to reduce NBT was measured using conventional techniques. Briefly, 2.10^5 cells were suspended in 900 μl of RPMI 1640 medium and were incubated in the presence of 0.2 μg/ml of 12-O-tetradecanoylephorbol-13-acetate (TPA, Sigma) and 0.5 mg/ml of NBT (Sigma) for 30 minutes at 37° C. The reaction was stopped at 4° C., the cells were cytocentrifuged and subjected to May-Grünwald-Giemsa staining agent. The percentage of cells containing black NBT reduction deposits was determined in duplicate, under an optical microscope, after examining 300 cells.

AML blasts [2] = test: Trypan blue exclusion test; settings: genistein then HA
Protocol: (§2) Tyrosine phosphorylation inhibition with genistein: 2.10^5 AML blasts, suspended in 200 μl of RPMI 1640/10% FCS medium, were incubated in the presence of 50 nM/l of genistein (Calbiochem-Novabiochem, San Diego, Calif.) for 1 hour at 37° C., and then in the presence of HA for either one hour (for studies on cytokine transcript expression), or five days (for studies on differentiation).

AML blasts [3] = test: Tyrosine phosphorylation inhibition with genistein, effect on HA-induced differentiation; settings: genistein 1 hour, then HA five days
Protocol: as §2

AML blasts [4] = test: Flow cytometry analysis of CD14 and CD15 expression
Protocol: as §1
Flow cytometry analysis of CD14 and CD15 expression: the AML blasts were suspended at a rate of 10^5 blasts/ml of RPMI 1640 medium containing 0.02% bovine serum albumin and 0.02% […] NaN3, and were then incubated at 4° C. for 30 minutes in the presence of mAbs conjugated with fluorescein isothiocyanate (FITC), and directed against CD14 (5 μg/ml IgG2b, Coulter Immunology, Hialeah, Fla.) or directed against CD15 (1 μg/ml IgM, Becton Dickinson, San José, Calif.). The mAbs were used at saturation concentrations. The murine IgM and IgG2b conjugated with FITC were obtained from Coulter-Immunotech (Coulter-Immunotech Inc., Westbrook, Me.), and were used at a 1:50 dilution. The bonding of the mAbs directed against CD14 and CD15 was quantified by measuring, by flow cytometry, the cell fluorescence in relation to that of cells labelled with the IgG-FITC. The measurement was made using a FACSvantage (Becton Dickinson) equipped with an INNOVA70-4 argon ion laser (Coherent Radiation, Palo Alto, Calif.) set at 488 nm and operating at 500 mW. The flow cytometer was calibrated using fluorescent beads (Becton Dickinson). This measurement was made on 3000 cells.

AML blasts [5] = test: AML blast differentiation induced by HA or anti-CD44 mAbs (NBT, CD14/CD15, cytology criteria)
From the text: Leukaemic peripheral blood or bone marrow samples were taken at the time of diagnosis, after informed consent, from 36 patients suffering from acute myeloid leukaemia (AML). The diagnosis of the disease and its classification comply with French-American-British (FAB) classification criteria.
Fresh or frozen AML cells were enriched by centrifugation according to the density gradient in the presence of Ficoll, and washed in RPMI 1640 medium containing 10% foetal calf serum (FCS). The frozen cells were thawed at ambient temperature in RPMI 1640 medium containing 50% FCS, and then washed twice in RPMI medium supplemented with 10% FCS. B and T lymphocytes were eliminated from all the samples, along with monocytes for the AML1/2 and AML3 samples. This elimination was performed by specific immunoadsorption of Dynabeads beads (Dynal, Oslo, Norway) coated with monoclonal antibodies directed against the specific surface antigens CD2 and CD19 (lymphocytes) and CD14 (monocytes), according to the manufacturer's instructions. In this way, cell suspensions containing more than 95% AML blasts were obtained.
as §1
Differentiation was detected by analysing 3 criteria: 1) the ability to produce an oxidation-reduction reaction in response to a phorbol ester: this oxidation-reduction reaction is detected with nitroblue tetrazolium NBT reduction, 2) the expression of specific antibodies for differentiation (specific CD14 for monocytes, and specific CD15 for granulocytes), and 3) specific cytological modifications. All these criteria are specific to normal differentiate granulocyte or monocyte cells.

M-CSF transcripts = test: RT-PCR cytokine transcript expression study; settings: out of 3 cases, 1 hour after HA treatment
Protocol: RT-PCR cytokine transcript expression study: the total RNA was extracted from 5.10^5 cells using Trizol reagent (Life Technologies, Cergy Pontoise, France), followed by a phenolchloroform extraction and isopropanol precipitation. One microgram of total RNA heated at 70° C. for 10 minutes was used as a matrix for the synthesis of the first strand of complementary DNA (cDNA), by adding reverse transcriptase and random hexamers (Life Technologies). The transcript of the glyceraldehyde phosphodehydrogenase (GADPH) housekeeping gene was used as an internal marker for the PCR reaction (0.24 kb amplification product). Equilibrated quantities of cDNA were used for the PCR amplification of the cytokine transcripts, the primers used for PCR were as follows: […]
The PCR protocol consisted of 30 cycles of 94° C. for 1 minute, 58° C. for 1 minute and 72° C. for 1 minutes, using a thermocycler (Perkin Elmercetus, Norwalk, Conn.) For each experiment, two negative controls were subject to all the steps.

AML blasts [6] = test: Cytological study (May-Grünwald-Giemsa staining)
Protocol: as §1
The cell smears, prepared in triplicate, were stained by May-Grünwald-Giemsa staining and their cytology was examined under an optical microscope.

[7] = system: intracellular tyrosine phosphorylations in AML blasts; test: Protein phosphorylation analysis on tyrosine residue; settings: AML5 blasts, 6D12-FITC flow cytometry
Protocol: Protein phosphorylation induction on tyrosine residue: HA-12 (50 μg/ml) was added at the time t=0 to 2.10^5 AML blasts suspended, at ambient temperature, in 200 μl of RPMI 1640 medium containing 10% FCS. At t=1 min, 5 min, 15 min and 30 min, 200 μl of Permeafix Ortho (Coulter-Immunotech Inc., Westbrook, Me.) was added to stop the phosphorylations and permeabilise the cells. After 40 minutes of incubation at ambient temperature, and three washes in PBS, the phosphorylated proteins on the tyrosine residue were labelled specifically with 6D12 mAb (used at 2 μg/ml conjugated with FITC, and the labelling intensity was measured by flow cytometry with reference to the isotype control (cells labelled with IgG1 conjugated with FITC), as described above.

[8] = Total number, 35 cases analysed

Question: Which “% NBT^+ cells (extreme values)” value (AML blasts [1]; M3 (AML3) blasts) does the source give for `CC1=C(/C=C/C(C)=C/C=C/C(C)=C/C(=O)O)C(C)(C)CCC1` [RA, all-transretinoic acid, reference compound] here?
Answer: (RA: 47-90) %

Question: Which results are given for `O=c1c(-c2ccc(O)cc2)coc2cc(O)cc(O)c12` [genistein]?
Answer: cell viability (AML blasts [2]): greater than 95%; effect on AML3 and AML5 differentiation induced by CD44 (HA treatment) (AML blasts [3]): inhibits this differentiation

Question: hyaluronic acid [HA] was tested. Which “factor by which MFI values (CD14, CD15) multiplied” value (AML blasts [4]; AML1/2) did it give?
Answer: around 2

Question: And the “cases in which expression of both CD14 and CD15 increased” value (AML blasts [4]; AML1/2, of the 8 cases)?
Answer: 6

Question: What about the “increase of CD15 MFI values” (AML blasts [4]; AML3) of the same compound?
Answer: approximately 3 fold

Question: What about the “cases in which maturation was as marked as after all-transretinoic acid” value (AML blasts [4]; AML3, of the 12 cases) of the same compound?
Answer: 8

Question: And the “cases in which maturation was as marked as after all-transretinoic acid, %” value (AML blasts [4]; AML3, of the 12 cases)?
Answer: 66%

Question: And the “number of samples in which the % of CD15^+ cells increased” value (AML blasts [4]; AML3, out of 16 samples)?
Answer: 12

Question: And the “factor by which % of CD14 and CD15 positive cells multiplied” value (AML blasts [4]; AML4)?
Answer: 2

Question: What about the “factor by which MFI values (CD14, CD15) multiplied” value (AML blasts [4]; AML4) of the same compound?
Answer: 3

Question: And the “dose up to which differentiation intensity (CD14 MFI) is related to the dose” value (AML blasts [4]; AML5 blasts, HA-12 (FIG. 3A))?
Answer: up to 15 μg/ml

Question: What about the “% CD15+ cells (extreme values)” value (AML blasts [4]; M1/M2 (AML1/2) blasts) of the same compound?
Answer: 22-100%

Question: And the “% CD15+ cells (extreme values)” value (AML blasts [4]; M3 (AML3) blasts)?
Answer: 42-90%

Question: What about the “% CD15^− cells median values” (AML blasts [4]; M3 (AML3) blasts) of the same compound?
Answer: 78%

Question: And the “CD14 MFI value” (AML blasts [4]; one AML5 sample with CD14 in negative controls (102 in the negative controls))?
Answer: up to 340 arbitrary units

Question: And the “Number of cases of differentiation” value (AML blasts [5]; AML1/2, 7 cases analysed, 20 μg/ml HA, 5 days)?
Answer: 5/7 and 5

Question: And the “Number of cases of differentiation” value (AML blasts [5]; AML3, 16 cases analysed, 20 μg/ml HA, 5 days)?
Answer: 12/16 and 12

Question: What about the “Number of cases of differentiation” value (AML blasts [5]; AML4, 4 cases analysed, 20 μg/ml HA, 5 days) of the same compound?
Answer: 3/4 and 3

Question: And the “Number of cases of differentiation” value (AML blasts [5]; AML5, 8 cases analysed, 20 μg/ml HA, 5 days)?
Answer: 6/8 and 6

Question: And the “Number of cases of differentiation” value (AML blasts [5]; [8])?
Answer: 26

Question: And the “Number of cases of differentiation, as % of cases analysed” value (AML blasts [5]; [8])?
Answer: 74%

Question: What about the “cases of AML in which it was not possible to induce differentiation” value (AML blasts [5]; all AML patients (36)) of the same compound?
Answer: 9/36

Question: What about the “cases with M-CSF transcripts detected” value (M-CSF transcripts; M1/M2 AML) of the same compound?
Answer: 1

Question: What about the “cases with M-CSF transcript detected” value (M-CSF transcripts; M5 AML) of the same compound?
Answer: 1

Question: And the “% NBT^+ cells, median value” (AML blasts [1]; AML1/2, 5 out of 7 cases)?
Answer: 22%

Question: And the “% NBT^+ cells in the cases as high as with all-transretinoic acid” value (AML blasts [1]; AML3, 6 of the 12 responding cases)?
Answer: over 50%

Question: And the “% NBT^+ cells, median value” (AML blasts [1]; AML3, 12 out of 16 cases)?
Answer: 42%

Question: And the “% NBT^+ cells, median value” (AML blasts [1]; AML4)?
Answer: 55%

Question: And the “median % NBT^+ cells relative to controls” value (AML blasts [1]; AML4)?
Answer: 3 times

Question: What about the “% NBT^+ cells, median value” (AML blasts [1]; AML5, 6 out of 8 cases) of the same compound?
Answer: 52%

Question: What about the “% NBT^+ cells (extreme values)” value (AML blasts [1]; M3 (AML3) blasts) of the same compound?
Answer: 20%-80%

Question: And the “% NBT^+ cells (extreme values)” value (AML blasts [1]; M4 (AML4) blasts)?
Answer: 43%-90%

Question: And the “% NBT^+ cells (extreme values)” value (AML blasts [1]; M5 (AML5) blasts)?
Answer: 32%-70%

Question: And the “cytological change after treatment” value (AML blasts [6]; AML1/2 blasts)?
Answer: No cytological change was observed

Question: What about the “cytological characteristics after treatment” value (AML blasts [6]; AML3 blasts, 5 days) of the same compound?
Answer: a segmented nucleus, a low nucleo-cytoplasmic ratio, rare nucleoles, some azurophilic granulations

Question: And the “cytological characteristics after treatment” value (AML blasts [6]; AML5 blasts)?
Answer: a decrease in the nucleus/cytoplasm ratio, a decrease in the number of nucleoles, chromatin condensation, and irregular cytoplasmic contours

Question: What about the “induction of intracellular tyrosine phosphorylations” value [7] of the same compound?
Answer: already induced after one minute of treatment
